From patent US20240217928A1, “HALOACETHYDRAZIDES USEFUL AS AEP INHIBITORS” (Hoffmann-La Roche Inc., priority 2021, published 2024)

The molecules below were run against T1, rhlegumain (hLGMN(V18-Y433)_VD-8xHis-S2-r) (Homo sapiens, UniProt Q99538) (assay: AEP activity enzymatic assay). Details: not given.
T1 construct: construct name: hLGMN(V18-Y433)_VD-8xHis-S2-r; VD linker (C); 8xHis (C); made in house
T1 sequence (Q99538 26-323 limits assumed): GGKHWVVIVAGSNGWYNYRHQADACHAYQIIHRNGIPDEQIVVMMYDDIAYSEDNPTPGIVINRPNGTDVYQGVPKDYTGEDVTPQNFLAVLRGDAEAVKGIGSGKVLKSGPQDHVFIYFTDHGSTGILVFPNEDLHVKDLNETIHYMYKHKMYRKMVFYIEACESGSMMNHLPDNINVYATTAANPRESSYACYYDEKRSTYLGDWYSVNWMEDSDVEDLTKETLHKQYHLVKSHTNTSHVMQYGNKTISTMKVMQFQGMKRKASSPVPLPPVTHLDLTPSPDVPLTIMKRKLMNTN
Type: biochemical
Protocol: Prior to the assay measurements, rhlegumain (in house, construct name: hLGMN(V18-Y433)_VD-8xHis-S2-r) is activated by diluting it from 1.1 mg/ml to 0.1 mg/ml (11-fold) in activation buffer (50 mM sodium acetate, 100 mM NaCl, pH 4.0) and incubation at 37° C. for 2 h. The activated enzyme solution stock is stored at −80° C.
NC(=O)CN(NC(=O)[C@@H]1CCCN1C(=O)Cc1ccccc1)C(=O)CF [Example 5, 2-[(2-Fluoroacetyl)-[[(2S)-1-(2-Phenylacetyl)Pyrrolidine-2-Carbonyl]Amino]Amino]Acetamide] showed an IC50 of 22.2 nM.
NC(=O)CN(NC(=O)[C@@H]1CCCN1C(=O)C1(c2ccc(Cl)cc2)CCC1)C(=O)CF [Example 4, 2-[(2-Fluoroacetyl)-[[(2S)-1-[1-(4-Chlorophenyl)Cyclobutanecarbonyl]Pyrrolidine-2-Carbonyl]Amino]Amino]Acetamide] gave an IC50 of 1.3 nM.
For NC(=O)CN(NC(=O)[C@@H]1CCCN1C(=O)C1(c2ccccc2)CCC1)C(=O)CF [Example 3], the IC50 was 3.6 nM.
NC(=O)CN(NC(=O)[C@@H]1CCCN1S(=O)(=O)CCc1ccccc1)C(=O)CF [Example 10, 2-[(2-Fluoroacetyl)-[[(2S)-1-(2-Phenylethylsulfonyl)Pyrrolidine-2-Carbonyl]Amino]Amino]Acetamide] gave an IC50 of 33.8 nM.
Molecule NC(=O)CN(NC(=O)[C@@H]1CCCN1C(=O)C1(c2ccccc2)CC1)C(=O)CF [Example 8, 2-[(2-Fluoroacetyl)-[[(2S)-1-(1-Phenylcyclopropanecarbonyl)Pyrrolidine-2-Carbonyl]Amino]Amino]Acetamide] has an IC50 of 5 nM.
NC(=O)CN(NC(=O)[C@@H]1CCCN1C(=O)C1(c2ccc(Cl)cc2)CC1)C(=O)CF [Example 6, 2-[(2-Fluoroacetyl)-[[(2S)-1-[1-(4-Chlorophenyl)Cyclopropanecarbonyl]Pyrrolidine-2-Carbonyl]Amino]Amino]Acetamide] gave an IC50 of 2.7 nM.
NC(=O)CN(NC(=O)[C@@H]1CCCN1C(=O)C(F)(F)c1ccccc1)C(=O)CF [Example 1, 2-[(2-Fluoroacetyl)-[[(2S)-1-(2,2-Difluoro-2-Phenyl-Acetyl)Pyrrolidine-2-Carbonyl]Amino]Amino]Acetamide] was tested, and the IC50 was 3.6 nM.
For C#CCOc1ccc(C2(C(=O)N3CCC[C@H]3C(=O)NN(CC(N)=O)C(=O)CF)CC2)cc1 [Example 14, 2-[(2-Fluoroacetyl)-[[(2S)-1-[1-(4-Prop-2-Ynoxyphenyl)Cyclopropanecarbonyl]Pyrrolidine-2-Carbonyl]Amino]Amino]Acetamide], the IC50 was 1.4 nM.
With C#Cc1ccc(C2(C(=O)N3CCC[C@H]3C(=O)NN(CC(N)=O)C(=O)CF)CC2)cc1 [Example 11, 2-[(2-Fluoroacetyl)-[[(2S)-1-[1-(4-Ethynylphenyl)Cyclopropanecarbonyl]Pyrrolidine-2-Carbonyl]Amino]Amino]Acetamide] the IC50 was 1.2 nM.
NC(=O)CN(NC(=O)[C@@H]1CCCN1C(=O)CCc1ccccc1)C(=O)CF [Example 2, 2-[(2-Fluoroacetyl)-[[(2S)-1-(3-Phenylpropanoyl)Pyrrolidine-2-Carbonyl]Amino]Amino]Acetamide] gave an IC50 of 72.9 nM.
NC(=O)CN(NC(=O)[C@@H]1CCCN1S(=O)(=O)Cc1ccccc1)C(=O)CF [Example 9, 2-[(2-Fluoroacetyl)-[[(2S)-1-Benzylsulfonylpyrrolidine-2-Carbonyl]Amino]Amino]Acetamide] gave an IC50 of 83.6 nM.
For NC(=O)CN(NC(=O)[C@@H]1CCCN1S(=O)(=O)c1ccccc1)C(=O)CF [Example 7, 2-[(2-Fluoroacetyl)-[[(2S)-1-(Benzenesulfonyl)Pyrrolidine-2-Carbonyl]Amino]Amino]Acetamide], the IC50 was 61.7 nM.

Same assay, conditions: 0.5 nM legumain, 0.5 uM Z-Ala-Ala-Asn-Rh110-(D-Pro), pH 5.8, 30 min preincubation at 25° C.; read-out: IC50 (AEP)
COc1ccc(-c2ccc(S(=O)(=O)N3CCC[C@H]3C(=O)NN(CC(N)=O)C(=O)CCl)cc2)cc1 [Example 17, 2-[(2-Chloroacetyl)-[[(2S)-1-[4-(4-Methoxyphenyl)Phenyl]Sulfonylpyrrolidine-2-Carbonyl]Amino]Amino]Acetamide] showed an IC50 of 0.3 nM.
With COc1ccc(-c2ccc(S(=O)(=O)N3CCC[C@H]3C(=O)NN(CC(N)=O)C(=O)CF)cc2)cc1 [Example 13, 2-[(2-Fluoroacetyl)-[[(2S)-1-[4-(4-Methoxyphenyl)Phenyl]Sulfonylpyrrolidine-2-Carbonyl]Amino]Amino]Acetamide] the IC50 was 1.5 nM.
